{"source": "patent US9463175B2", "about": "“Antimalarial drug which contains 5-aminolevulinic acid or derivative thereof as active ingredient” (SBI Pharmaceuticals Co., Ltd., priority 2010, dated 2016)", "key": {"[1]": {"test_system": "Plasmodium falciparum 3D7", "assay": "Infection rate in 2% culture with white LED irradiation (Example 8)", "type": "cell-based", "settings": "ALA hydrochloride 200 μM; starting infection rate 2%; 8 hours culture, white LED 15 minutes, further 8 hours", "description": "(§1) A culture medium was prepared in the same manner as in Example 5 with the exception that 2 ml of a culture medium having an infection rate of 2% was used. To the thus prepared culture medium, iron (II) chloride (final concentration: 10 μM) and ALA hydrochloride (final concentration: 200 μM) were added, followed by culture for 8 hours. Thereafter, the infection rate was measured by Giemsa staining.\nALA hydrochloride was added to a final concentration of 200 μM to a culture medium that had been prepared in the same manner as in Example 7. The obtained mixture was cultured for 8 hours, and thereafter, irradiated with white LED for 15 minutes. The resultant was further cultured for 8 hours, and the infection rate was then measured by Giemsa staining."}, "[2]": {"test_system": "Plasmodium falciparum 3D7", "assay": "Infection rate in culture medium with high starting infection rate of 2%, 8 hours culture (Example 7)", "type": "cell-based", "settings": "ALA hydrochloride 200 μM + iron (II) chloride 10 μM; starting infection rate 2%; culture for 8 hours; nothing added: 3.1%", "description": "(§2) An iron (II) chloride aqueous solution was added to 1 ml of Plasmodium falciparum 3D7 culture medium having an infection rate of 0.3% to a final concentration of 0.1, 1, 10, and 100 μM. As a control, a culture medium to which sterilized water had been added was used. Three culture media were prepared for each of the aforementioned concentrations, and a 12-well plate was used. After each culture medium had been cultured for 48 hours, the infection rate was measured by Giemsa staining. In addition, as for an ALA-added medium, an ALA chloride aqueous solution was added to the medium to a final concentration of 200 μM, and an iron (II) chloride aqueous solution was then added thereto to a final concentration of 0.1, 1, 10, and 100 μM. As described above, the culture medium was cultured for 48 hours, and the infection rate was then measured by Giemsa staining.\nas §1"}, "[3]": {"test_system": "Plasmodium falciparum 3D7", "assay": "Infection rate of Plasmodium falciparum 3D7 in synchronized culture at the ring stage (Example 6)", "type": "cell-based", "description": "as §2\n(§3) The infection (proliferation) rate (%) was calculated using the following formula: [(Infection rate after 48 hours−infection rate at initiation of culture)/(infection rate of control after 48 hours−infection rate at initiation of culture)]×100. It is to be noted that the infection rate at initiation of the culture was set at 0.3%.\nAccording to a common method, there was prepared a Plasmodium falciparum 3D7 culture medium having an infection rate of 0.3%, which was subjected to synchronized culture at the ring stage by treating with 5% sorbitol. The infection rate was measured by the same method as that described in Example 5. The final concentration of ALA hydrochloride was set at 200 μM."}, "malaria parasites": {"test_system": "malaria parasites", "settings": "cited from earlier work"}, "[4]": {"test_system": "Plasmodium falciparum 3D7", "assay": "Infection (proliferation) rate of Plasmodium falciparum 3D7 in random culture, Giemsa staining (Example 5)", "type": "cell-based", "settings": "48 hours", "description": "as §2, §3\nThe ratio of an increase in the infection rate caused by culture was indicated by setting a region to which neither iron nor ALA was added at 100%."}, "[5]": {"test_system": "chloroquine-resistant malaria parasites", "assay": "Administration to a malaria patient not responding to chloroquine (Example 3)", "type": "in vivo, human", "settings": "predetermined amount of chloroquine alone, body temperature kept around 38 degrees", "description": "A predetermined amount of chloroquine was administered to a patient who developed malaria. […] They suffered from headache, vertigo and nausea, and their body temperature was kept around 38 degrees. While administering chloroquine, a single capsule of the same capsule as used in Example 1 was also administered to the patient once a day. […] After administration of the capsule for 3 days, administration was suspended."}}}
{"smiles": "Cl.NCC(=O)CCC(=O)O", "note": "[ALA hydrochloride]", "values": [{"measurement": "infection rate", "setting": "[1]", "result": 1.8, "unit": "%"}, {"measurement": "infection rate", "setting": "[2]", "result": 0.47, "unit": "%"}]}
{"smiles": "NCC(=O)CCC(=O)O", "note": "[ALA, 5-aminolevulinic acid]", "values": [{"measurement": "Infection Rate by Synchronized Culture (Ring Stage)", "setting": "[3]; ALA hydrochloride 200 μM + iron (II) chloride 0.1 μM", "result": 69, "unit": "%"}, {"measurement": "Infection Rate by Synchronized Culture (Ring Stage)", "setting": "[3]; ALA hydrochloride 200 μM + iron (II) chloride 1 μM", "result": 58, "unit": "%"}, {"measurement": "Infection Rate by Synchronized Culture (Ring Stage)", "setting": "[3]; ALA hydrochloride 200 μM + iron (II) chloride 10 μM", "result": 51, "unit": "%"}, {"measurement": "Infection Rate by Synchronized Culture (Ring Stage)", "setting": "[3]; ALA hydrochloride 200 μM + iron (II) chloride 100 μM", "result": 5, "unit": "%"}, {"measurement": "Infection Rate by Synchronized Culture (Ring Stage)", "setting": "[3]; ALA hydrochloride 200 μM, no iron (II) chloride", "result": 95, "unit": "%"}, {"measurement": "parasiticidal effect of PDT", "setting": "malaria parasites; ALA 0.2 mM in medium, light irradiation from projector lamp of 410 W for 30 minutes", "result": "sufficient parasiticidal effect"}, {"measurement": "ALA concentration in medium needed for PDT therapy to exhibit some effect", "setting": "malaria parasites; illumination with ordinary indoor light", "result": 2, "unit": "mM"}, {"measurement": "Infection Rate (%) by Random Culture", "setting": "[4]; ALA 200 μM + iron (II) chloride 0.1 μM", "result": 88, "unit": "%"}, {"measurement": "Infection Rate (%) by Random Culture", "setting": "[4]; ALA 200 μM + iron (II) chloride 1 μM", "result": 86, "unit": "%"}, {"measurement": "Infection Rate (%) by Random Culture", "setting": "[4]; ALA 200 μM + iron (II) chloride 10 μM", "result": 59, "unit": "%"}, {"measurement": "Infection Rate (%) by Random Culture", "setting": "[4]; ALA 200 μM + iron (II) chloride 100 μM", "result": 57, "unit": "%"}, {"measurement": "Infection Rate (%) by Random Culture", "setting": "[4]; ALA 200 μM, no iron (II) chloride", "result": 96, "unit": "%"}]}
{"smiles": "CCN(CC)CCCC(C)Nc1ccnc2cc(Cl)ccc12", "note": "(stereo not shown) [chloroquine]", "values": [{"measurement": "effect on malaria", "setting": "[5]", "result": "sufficient effects could not be obtained"}]}
{"smiles": "[Cl][Fe][Cl]", "note": "[iron (II) chloride, reference compound]", "values": [{"measurement": "Infection Rate (%) by Random Culture", "setting": "[4]; without ALA, iron (II) chloride 0.1 μM, no iron/no ALA = 100%", "result": 98, "unit": "%"}, {"measurement": "Infection Rate (%) by Random Culture", "setting": "[4]; without ALA, iron (II) chloride 1 μM, no iron/no ALA = 100%", "result": 97, "unit": "%"}, {"measurement": "Infection Rate (%) by Random Culture", "setting": "[4]; without ALA, iron (II) chloride 10 μM, no iron/no ALA = 100%", "result": 95, "unit": "%"}, {"measurement": "Infection Rate (%) by Random Culture", "setting": "[4]; without ALA, iron (II) chloride 100 μM, no iron/no ALA = 100%", "result": 82, "unit": "%"}]}
